pEC50, pIC50: −log10 of the molar value. The source made the active and inactive calls. The calls are words filed in the database; no cut-off is given here.
Legend:
[1] = Cytotoxicity against human melanoma cells after 48 hrs by SRB assay; type: functional; settings: Melanoma cell, read-out: LC50 (the source's name)
[2] = test system: Human immunodeficiency virus 2; test: Antiviral activity against HIV2 NIH-DZ assessed as cytoprotection; type: functional, organism-based
[3] = target: Protease (Human immunodeficiency virus 1) (UniProt Q9YQ12); test: Inhibition of HIV1 protease expressed in Escherichia coli by immunoblotting
[4] = target: Human immunodeficiency virus type 1 reverse transcriptase (Human immunodeficiency virus 1) (UniProt Q72547); test: Inhibition of HIV1 reverse transcriptase
[5] = test system: Human immunodeficiency virus 2; test: Inhibition of HIV2 reverse transcriptase
[6] = test system: Human immunodeficiency virus 1; test: Antiviral activity against HIV1 3B in human H9 cells; type: functional, organism-based
Escherichia coli [7] = test: DNA damaging activity against Escherichia coli K12 at 1 mg/ml by SOS chromotest agar spot test; type: functional, organism-based
Escherichia coli [8] = test: DNA damaging activity against Escherichia coli BR513 containing lysogenic lambda-lacZ fusion phage at 1 mg/ml by biochemical prophage induction assay; type: functional, organism-based
CEM-SS = test: Cytotoxicity against human CEM-SS cells; type: cell-based
[9] = test system: Human immunodeficiency virus 1; test: Antiviral activity against HIV1 RF in human MT2 cells; type: functional, organism-based
[10] = test system: Human immunodeficiency virus 1; test: Antiviral activity against HIV1 in human C8166 cells; type: functional, organism-based
[11] = test system: Human immunodeficiency virus 1; test: Antiviral activity against HIV1 in human CEM-SS cells after 6 days; type: functional, organism-based

Chain of Protease (Human immunodeficiency virus 1) (Q9YQ12 as listed by the source): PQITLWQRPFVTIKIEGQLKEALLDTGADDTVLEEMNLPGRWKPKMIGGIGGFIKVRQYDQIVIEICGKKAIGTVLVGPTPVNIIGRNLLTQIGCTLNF

Row | pEC50 ([11]; Human immunodeficiency virus 1, CEM-SS, 144 h) | SMILES | CC50 [1] | Activity [2] | Activity [3] | Activity [4] | Activity [5] | Activity [6] | Activity (Escherichia coli [7]) | Activity (Escherichia coli [8]) | pIC50 (CEM-SS) | Activity [9] | Activity [10] | Activity [11]
1 |  | CN1CCCCC1c1c(O)cc(O)c2c(=O)cc(-c3ccccc3)oc12 (stereo not given) | 0.1 µM | inactive | inactive | inactive | inactive | inactive | inactive | inactive | 6.18 | inactive | inactive | 
2 |  | COc1cc(O)c(C2CCCCN2C)c2oc(-c3ccccc3)cc(=O)c12 (stereo not given) [BUCHENAVIANINE] |  |  |  |  |  |  |  |  | 5.24 |  |  | <50%
3 | 3.85 | O=c1cc(-c2ccccc2)oc2c(C3CCCCN3)c(O)cc(O)c12 (stereo not given) |  |  |  |  |  |  |  |  | 3.85 |  |  | 
